Source: PubChem BioAssay (NCI)
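Interpolation was linear, between the two tested concentrations surrounding the appropriate level; five concentrations were tested over 48 hours in 96-well plates. TGI marks complete inhibition of growth.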

Columns and labels:
Experiment in all cases: inhibition of tumour cell growth, NCI panel, 48 h
SF-295 CNS = test system: SF-295 CNS
DU-145 prostate = test system: DU-145 prostate
MALME-3M melanoma = test system: MALME-3M melanoma
UACC-257 melanoma = test system: UACC-257 melanoma
CAKI-1 renal = test system: CAKI-1 renal
RXF 393 renal = test system: RXF 393 renal
HCT-116 colon = test system: HCT-116 colon
LOX IMVI melanoma = test system: LOX IMVI melanoma
T-47D breast = test system: T-47D breast
NCI-H460 lung = test system: NCI-H460 lung
786-0 renal = test system: 786-0 renal
EKVX NSCLC = test system: EKVX NSCLC
SK-MEL-5 melanoma = test system: SK-MEL-5 melanoma
SNB-75 CNS = test system: SNB-75 CNS
HS 578T breast = test system: HS 578T breast
HL-60(TB) leukemia = test system: HL-60(TB) leukemia
HCT-15 colon = test system: HCT-15 colon
SW-620 colon = test system: SW-620 colon
U251 CNS = test system: U251 CNS
HOP-62 NSCLC = test system: HOP-62 NSCLC
CCRF-CEM leukemia = test system: CCRF-CEM leukemia
OVCAR-4 ovarian = test system: OVCAR-4 ovarian
A549 NSCLC = test system: A549 NSCLC
SNB-19 CNS = test system: SNB-19 CNS
NCI-H226 lung = test system: NCI-H226 lung
HT29 colon = test system: HT29 colon
IGROV1 ovarian = test system: IGROV1 ovarian
SR leukemia = test system: SR leukemia
NCI-H23 lung = test system: NCI-H23 lung
PC-3 prostate = test system: PC-3 prostate
OVCAR-5 ovarian = test system: OVCAR-5 ovarian
SK-MEL-2 melanoma = test system: SK-MEL-2 melanoma
MOLT-4 leukemia = test system: MOLT-4 leukemia
SF-268 CNS = test system: SF-268 CNS
COLO 205 colon = test system: COLO 205 colon
UACC-62 melanoma = test system: UACC-62 melanoma
M14 melanoma = test system: M14 melanoma
MDA-MB-231 breast = test system: MDA-MB-231 breast
TK-10 renal = test system: TK-10 renal
KM12 colon = test system: KM12 colon
HCC-2998 colon = test system: HCC-2998 colon
OVCAR-3 ovarian = test system: OVCAR-3 ovarian
SF-539 CNS = test system: SF-539 CNS
UO-31 renal = test system: UO-31 renal
SK-OV-3 ovarian = test system: SK-OV-3 ovarian
MCF7 breast = test system: MCF7 breast
ACHN renal = test system: ACHN renal
SK-MEL-28 melanoma = test system: SK-MEL-28 melanoma
MDA-N = test system: MDA-N
K-562 leukemia = test system: K-562 leukemia
RPMI-8226 leukemia = test system: RPMI-8226 leukemia
SN12C renal = test system: SN12C renal
OVCAR-8 ovarian = test system: OVCAR-8 ovarian
MDA-MB-435 = test system: MDA-MB-435
NCI/ADR-RES ovarian = test system: NCI/ADR-RES ovarian
NCI-H522 lung = test system: NCI-H522 lung
BT-549 breast = test system: BT-549 breast
HOP-92 NSCLC = test system: HOP-92 NSCLC
A498 renal = test system: A498 renal

Compound: Nc1ncnc2c1nnn2C1C=CC(COS(N)(=O)=O)C1 (configuration not stated)
- TGI (SF-295 CNS): > 100 µM
- TGI (DU-145 prostate): > 100 µM
- TGI (MALME-3M melanoma): > 100 µM
- TGI (UACC-257 melanoma): 62.6 µM
- TGI (CAKI-1 renal): 12.2 µM
- TGI (RXF 393 renal): 86 µM
- TGI (HCT-116 colon): 36.3 µM
- TGI (LOX IMVI melanoma): 17.8 µM
- TGI (T-47D breast): 97.7 µM
- TGI (NCI-H460 lung): > 100 µM
- TGI (786-0 renal): 33.3 µM
- TGI (EKVX NSCLC): > 100 µM
- TGI (SK-MEL-5 melanoma): 15.9 µM
- TGI (SNB-75 CNS): 39.3 µM
- TGI (HS 578T breast): 8.3 µM
- TGI (HL-60(TB) leukemia): 17.1 µM
- TGI (HCT-15 colon): > 100 µM
- TGI (SW-620 colon): > 100 µM
- TGI (U251 CNS): 57.7 µM
- TGI (HOP-62 NSCLC): > 100 µM
- TGI (CCRF-CEM leukemia): > 100 µM
- TGI (OVCAR-4 ovarian): 62.3 µM
- TGI (A549 NSCLC): > 100 µM
- TGI (SNB-19 CNS): 33.3 µM
- TGI (NCI-H226 lung): 42.1 µM
- TGI (HT29 colon): 98.5 µM
- TGI (IGROV1 ovarian): > 100 µM
- TGI (SR leukemia): > 100 µM
- TGI (NCI-H23 lung): 18.2 µM
- TGI (PC-3 prostate): 26.9 µM
- TGI (OVCAR-5 ovarian): 49.3 µM
- TGI (SK-MEL-2 melanoma): 21.4 µM
- TGI (MOLT-4 leukemia): > 100 µM
- TGI (SF-268 CNS): 93.6 µM
- TGI (COLO 205 colon): 17.4 µM
- TGI (UACC-62 melanoma): 35.4 µM
- TGI (M14 melanoma): 25 µM
- TGI (MDA-MB-231 breast): > 100 µM
- TGI (TK-10 renal): 36.4 µM
- TGI (KM12 colon): 86.3 µM
- TGI (HCC-2998 colon): 76.2 µM
- TGI (OVCAR-3 ovarian): 96.1 µM
- TGI (SF-539 CNS): 7.39 µM
- TGI (UO-31 renal): 49 µM
- TGI (SK-OV-3 ovarian): > 100 µM
- TGI (MCF7 breast): > 100 µM
- TGI (ACHN renal): 49.1 µM
- TGI (SK-MEL-28 melanoma): 26.2 µM
- TGI (MDA-N): 19 µM
- TGI (K-562 leukemia): > 100 µM
- TGI (RPMI-8226 leukemia): 50.7 µM
- TGI (SN12C renal): > 100 µM
- TGI (OVCAR-8 ovarian): 55 µM
- TGI (MDA-MB-435): 41.3 µM
- TGI (NCI/ADR-RES ovarian): > 100 µM

Compound: Cc1[nH]c2c(c1C)S(=O)(=O)c1cc3ccccc3nc1N2
- TGI (SF-295 CNS): > 100 µM
- TGI (DU-145 prostate): > 100 µM
- TGI (MALME-3M melanoma): 45.2 µM
- TGI (NCI-H522 lung): 52 µM
- TGI (UACC-257 melanoma): > 100 µM
- TGI (CAKI-1 renal): > 100 µM
- TGI (BT-549 breast): > 100 µM
- TGI (RXF 393 renal): 66.8 µM
- TGI (HCT-116 colon): > 100 µM
- TGI (LOX IMVI melanoma): 36.4 µM
- TGI (T-47D breast): > 100 µM
- TGI (NCI-H460 lung): > 100 µM
- TGI (786-0 renal): 30.4 µM
- TGI (EKVX NSCLC): > 100 µM
- TGI (SK-MEL-5 melanoma): 28.8 µM
- TGI (HOP-92 NSCLC): > 100 µM
- TGI (SNB-75 CNS): 45.7 µM
- TGI (HCT-15 colon): > 100 µM
- TGI (SW-620 colon): > 100 µM
- TGI (U251 CNS): 23.8 µM
- TGI (HOP-62 NSCLC): 39.8 µM
- TGI (CCRF-CEM leukemia): 45.8 µM
- TGI (OVCAR-4 ovarian): 32.4 µM
- TGI (A549 NSCLC): > 100 µM
- TGI (SNB-19 CNS): 70.6 µM
- TGI (NCI-H226 lung): 66.5 µM
- TGI (HT29 colon): 28.2 µM
- TGI (IGROV1 ovarian): 28 µM
- TGI (SR leukemia): > 100 µM
- TGI (NCI-H23 lung): > 100 µM
- TGI (PC-3 prostate): > 100 µM
- TGI (OVCAR-5 ovarian): 59 µM
- TGI (SK-MEL-2 melanoma): > 100 µM
- TGI (MOLT-4 leukemia): > 100 µM
- TGI (SF-268 CNS): > 100 µM
- TGI (COLO 205 colon): 46.3 µM
- TGI (UACC-62 melanoma): > 100 µM
- TGI (M14 melanoma): 62.5 µM
- TGI (MDA-MB-231 breast): 76.1 µM
- TGI (TK-10 renal): > 100 µM
- TGI (KM12 colon): > 100 µM
- TGI (HCC-2998 colon): > 100 µM
- TGI (OVCAR-3 ovarian): 45.2 µM
- TGI (SF-539 CNS): 25.2 µM
- TGI (UO-31 renal): 56.9 µM
- TGI (SK-OV-3 ovarian): > 100 µM
- TGI (MCF7 breast): > 100 µM
- TGI (A498 renal): > 100 µM
- TGI (ACHN renal): > 100 µM
- TGI (SK-MEL-28 melanoma): 67.3 µM
- TGI (MDA-N): 39.4 µM
- TGI (K-562 leukemia): > 100 µM
- TGI (RPMI-8226 leukemia): 40.4 µM
- TGI (SN12C renal): 36.9 µM
- TGI (OVCAR-8 ovarian): 30.4 µM
- TGI (MDA-MB-435): > 100 µM
- TGI (NCI/ADR-RES ovarian): > 100 µM
